Assay results taken from US5212176A, “R(+)-terazosin” (Abbott Laboratories, priority 1990, dated 1993).
Where a name gives a salt, the structure may show the parent alone.

Assays:
[1] = target: T1, α1 adrenergic receptors (Rattus norvegicus, UniProt P15823); assay: α1 adrenergic receptor binding: competition with tritiated prazosin in rat liver membranes; design: species or system male Sprague-Dawley rats; conditions: [3H]prazosin 0.2 nM, 22° C., 50 min, mean, read-out: α1 Receptor pKI (converted)
T1 construct: cellular membranes containing α-receptors; from tissue; host or cells: liver membranes of male Sprague-Dawley rats
T1 sequence (P15823 1-515): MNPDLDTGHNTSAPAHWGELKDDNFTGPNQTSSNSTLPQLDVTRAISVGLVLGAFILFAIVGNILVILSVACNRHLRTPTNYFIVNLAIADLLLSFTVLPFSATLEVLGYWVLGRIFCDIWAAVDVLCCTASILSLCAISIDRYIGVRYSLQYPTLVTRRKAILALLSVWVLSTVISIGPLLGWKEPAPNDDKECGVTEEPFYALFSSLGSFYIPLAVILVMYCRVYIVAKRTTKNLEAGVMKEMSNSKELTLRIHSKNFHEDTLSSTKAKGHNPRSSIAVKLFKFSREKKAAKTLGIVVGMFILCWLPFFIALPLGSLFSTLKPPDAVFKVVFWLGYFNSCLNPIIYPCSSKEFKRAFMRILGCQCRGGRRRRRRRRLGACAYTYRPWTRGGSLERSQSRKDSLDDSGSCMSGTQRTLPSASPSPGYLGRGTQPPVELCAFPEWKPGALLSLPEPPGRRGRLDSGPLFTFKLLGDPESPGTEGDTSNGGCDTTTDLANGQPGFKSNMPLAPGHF
Experimental: (§1) The technique is well known and described in the literature. The pKI, or negative logarithm of the binding equilibrium constant, is determined from the experimental data for each receptor and the degree of selectivity of the compound in question for α1 over α2 receptors can be measured by the antilogarithm of the differences between the pKI values for the two receptors.
(§2) α-Adrenergic binding data were obtained for the two enantiomers of terazosin and the racemic compound. Tissue from the liver and cerebral cortex of male Sprague-Dawley rats was homogenized in ice-cold assay buffer (Tris-HCl, 50 mM, pH 7.0 and 22° C.). After centrifugation at 48,000 g for ten minutes the resulting pellets, containing cellular membranes containing α-receptors, were resuspended in 20 volumes of assay buffer and recentrifuged for ten minutes at 48,000 g. Liver membranes were diluted 200-fold and cerebral cortex tissues 50-fold with assay buffer.
(§3) Binding to α1 adrenergic receptors was characterized with liver membranes in competition studies using tritiated prazosin (82 Ci/mmol, DuPont NEN; 0.2 nM) and six concentrations of each test compound at half-log incremental concentrations. Binding to α2 adrenergic receptors was characterized in cerebral cortex tissue using tritiated rauwolscine (82.2 Ci/mMol, DuPont NEN; 0.5 nM) and six concentrations of competing test compound. Equilibrium binding was characterized after a 50 minute incubation period at 22° C.
(§4) where [L] is the concentration of radioligand and KD is the equilibrium dissociation constant of the radioligand for the receptor.

[2] = target: α2 adrenergic receptors; assay: α2 adrenergic receptor binding: competition with tritiated rauwolscine in rat cerebral cortex tissue; design: species or system male Sprague-Dawley rats; conditions: [3H]rauwolscine 0.5 nM, 22° C., 50 min, mean
Experimental: as §1, §2, §3, §4

[3] = acute toxicity, intravenous administration in adult male mice; format: in vivo; conditions: mouse, in vivo, adult male mice
Experimental: (§5) The acute toxicities of the two enantiomeric forms of terazosin and the racemic compound were tested in adult male mice by intravenous administration, and the data appear in Table 2.

[4] = system: spontaneously hypertensive rat; assay: antihypertensive effects in the spontaneously hypertensive rat model (blood pressure and heart rate); format: in vivo; conditions: oral, 0.1 to 10.0 mg/kg; 1, 5, 8, and 24 hours
Experimental: The antihypertensive effects of R(+)-, S(-)-, and racemic terazosin were tested in several well-controlled experiments in the spontaneously hypertensive rat model. All three materials were dissolved in vehicle (0.2% methylcellulose) and administered orally at doses ranging from 0.1 to 10.0 mg/kg of body weight. As a control, the vehicle was administered orally. The compounds were administered in a volume of 2.0 ml/kg. All doses of the compound and vehicle were tested simultaneously in groups of eight to sixteen rats, randomly grouped.
The arterial and systolic blood pressure and heart rate were measured thirty minutes prior to and at intervals of 1, 5, 8, and 24 hours following administration of the test compounds. […] While not holding to one theory to the exclusion of others, it is believed that the tachycardia associated with administration of the S(-)-enantiomer is due to the greater affinity of the S(-)-enantiomer for binding at the α2 adrenergic receptor and the lack of tachycardia associated with administration of the R(+)-enantiomer with its low affinity for the α2 receptors.

[5] = target: T2, α2 adrenoceptor (Rattus norvegicus, UniProt P22909); assay: α2-mediated norepinephrine release / clonidine antagonism in the stimulated rat vas deferens model; design: species or system male Wistar rats
T2 construct: Vas deferens tissue from male Wistar rats; from tissue; host or cells: isolated vas deferens of male Wistar rats
T2 sequence (P22909 1-465): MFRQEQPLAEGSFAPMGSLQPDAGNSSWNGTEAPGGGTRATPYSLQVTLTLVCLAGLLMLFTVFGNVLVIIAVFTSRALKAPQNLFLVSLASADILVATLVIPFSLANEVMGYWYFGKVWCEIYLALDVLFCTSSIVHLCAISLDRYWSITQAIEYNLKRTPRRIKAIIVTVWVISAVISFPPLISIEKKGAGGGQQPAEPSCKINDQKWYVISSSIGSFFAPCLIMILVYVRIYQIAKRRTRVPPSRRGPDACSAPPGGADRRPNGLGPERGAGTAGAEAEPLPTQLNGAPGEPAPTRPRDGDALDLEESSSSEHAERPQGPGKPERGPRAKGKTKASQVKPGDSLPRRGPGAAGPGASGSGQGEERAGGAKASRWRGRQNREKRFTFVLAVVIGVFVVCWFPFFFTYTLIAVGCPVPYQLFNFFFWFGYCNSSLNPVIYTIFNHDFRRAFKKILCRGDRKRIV
Experimental: The effect upon α2 -stimulated norepinephrine release of R(+)-terazosin and the S(-)-enantiomer and racemic compound were evaluated in the stimulated rat vas deferens model. Vas deferens tissue from male Wistar rats was cleaned of extraneous tissue and mounted between platinum stimulating electrodes and suspended in a tissue bath. The tissues were stimulated transmurally until the preparation stabilized, generally after about 60-80 minutes. After the twitch response became constant, a stimulus was applied at a frequency of 0.1 Hz for the duration of the dose-responsestudy.
Clonidine was used as a control for inhibiting the twitch response, with 10 minute contact times at increasing doses until the stimulated response was attenuated to zero. The stimulus was then reduced to once every five minutes and the tissue washed until the twitch response was restored. After this, the 0.1 Hz signal was again applied and clonidine was administered together with test compound. All responses were calculated as percent reduction in the twitch response.
(The pA2 values is the negative logarithm of the equilibrium dissociation constant for the antagonist-receptor complex, calculated from pharmacological functional data, and is a measure of the affinity of the antagonist at the particular receptor.)

[6] = system: adult male mice; assay: acute toxicity, intravenous administration in adult male mice; format: in vivo; conditions: mice, R(+) vs S(-)
Experimental: as §5

Row | SMILES | Ki [1] [nM] | α2 Receptor pKI [2] | LD50 [3] [mg/kg] | increase in heart rate (tachycardia) [4] | effect on norepinephrine release and contractile (twitch) response ([5]; rat vas deferens, 0.1 Hz stimulation, agonist control) | LD50 increase over the corresponding S(-)-enantiomer [6] [%] | pA2 (measurability) ([5]; rat vas deferens) | α2-adrenoreceptor affinity and effect on α2-adrenoreceptor mediated norepinephrine release ([5]; tested up to 3.0 μmolar)
1 | COc1cc2nc(N3CCN(C(=O)C4CCCO4)CC3)nc(N)c2cc1OC (racemic) [Racemic, 2-[4-[(tetrahydro-2-furanyl)carbonyl]-1-piperazinyl]-6,7-dimethoxy-4-quinazolinamine, reference compound] | 0.643 | 6.569 ± 0.129 - log M | 248 | tachycardia was consistently observed |  |  |  | 
2 | Clc1cccc(Cl)c1N=C1NCCN1 [clonidine, reference compound] |  |  |  |  | inhibits norepinephrine release from the adrenergic nerve endings and thus inhibits the contractile response of tissue |  |  | 
3 | COc1cc2nc(N3CCN(C(=O)[C@H]4CCCO4)CC3)nc(N)c2cc1OC [R(+), R(+)-2-[4-[(tetrahydro-2-furanyl)carbonyl]-1-piperazinyl]-6,7-dimethoxy-4-quinazolinamine hydrochloride] | 0.964 | 5.938 ± 0.178 - log M | 307 | consistently did not produce an increase in heart rate (tachycardia) |  | 50 | No pA2 values could be measured | devoid of α2 -adrenoreceptor affinity and thus failed to affect α2 -adrenoreceptor mediated norepinephrine release
4 | COc1cc2nc(N3CCN(C(=O)[C@@H]4CCCO4)CC3)nc(N)c2cc1OC [S(-), S(-)-2-[4-[(tetrahydro-2-furanyl)carbonyl]-1-piperazinyl]-6,7-dimethoxy-4-quinazolinamine] | 0.643 | 7.036 ± 0.199 - log M | 205 | tachycardia was consistently observed |  |  |  | 
